Measured values published in US11162951B2, “Membrane-impermeant fluorogenic chromophores” (PARIS SCIENCES ET LETTRES, priority 2017, dated 2021).
Where “and” joins values, the source holds several entries; their conditions need not be identical. Equal entries are not always repeated. Entries after “also recorded” stand apart in the source; their conditions may differ.

Tests used:
[1] = biological target: T1, FAST (variant of the photoactive yellow protein (PYP), SEQ ID NO: 3) (Halorhodospira halophila, UniProt P16113, C69G/D97P/F96I/M100R/Q99S/T101G/T95M/Y94W/Y98T); assay: biochemical; type: binding; details: for Kd: KD affinity constant, FAST:fluorogen complex in PBS pH 7.4
T1 construct: His tag; made in house; host or cells: Rosetta(DE3)pLysS E. coli
T1 sequence (P16113 whole entry C69G/Y94W/T95M/F96I/D97P/Y98T/Q99S/M100R/T101G): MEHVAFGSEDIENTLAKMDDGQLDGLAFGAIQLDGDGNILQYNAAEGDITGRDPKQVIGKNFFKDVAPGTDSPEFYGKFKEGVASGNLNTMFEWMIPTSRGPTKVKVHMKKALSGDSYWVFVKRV
Method: In an embodiment, the thermodynamic dissociation constant KD is determined by spectrofluorometric titration as described in the Examples.
(§1) His-tagged FAST was expressed in Rosetta(DE3)pLysS E. coli (New England Biolabs). Cells were grown at 37° C. in Lysogeny Broth (LB) medium to OD600 nm 0.6. Expression was induced for 4 h by adding isopropyl β-D-1-thiogalactopyranoside (IPTG) to a final concentration of 1 mM. Cells were harvested by centrifugation (6,000×g for 15 min at 4° C.) and frozen. The cell pellet was resuspended in lysis buffer (phosphate buffer 50 mM, NaCl 150 mM, MgCl2 2.5 mM, protease inhibitor, DNase, pH 7.4) and sonicated (5 min at 20% of amplitude). The lysate was incubated for 2 h at 4° C. to allow DNA digestion by DNase. Cellular fragments were removed by centrifugation (15,000×g for 1 h at 4° C.). The supernatant was incubated overnight at 4° C. under gentle agitation with Ni-NTA agarose beads in phosphate buffered saline (PBS) (sodium phosphate 50 mM, NaCl 150 mM, pH 7.4) complemented with 10 mM Imidazole. Beads were washed with 20 volumes of PBS containing 20 mM Imidazole, and with 5 volumes of PBS complemented with 40 mM Imidazole. His-tagged proteins were eluted with 5 volumes of PBS complemented with 0.5 M Imidazole, followed by dialysis with PBS.
(§2) UV/Vis absorption spectra were recorded in 1 cm×1 cm quartz cuvettes (Hellma) on a diode array UV/Vis spectrophotometer (Evolution array, Thermo Scientific). Corrected fluorescence spectra upon one-photon excitation were recorded with a Photon Technology International QuantaMaster QM-1 spectrofluorimeter (PTI, Monmouth Junction, N.J.) equipped with a Peltier cell holder (TLC50, Quantum Northwest, Shoreline, Wash.).
(§3) Physico-chemical properties of FAST:fluorogen complexes in PBS pH 7.4 are described in Table 2 below: λabs, wavelength of maximal absorption; λem, wavelength of maximal emission; ε, molar absorption coefficient at λabs; ϕ, fluorescence quantum yield; KD affinity constant. The brightness is equal to ε×ϕ.

[2] = biological target: T1, FAST (variant of the photoactive yellow protein (PYP), SEQ ID NO: 3); assay: Physico-chemical (absorption/fluorescence) properties of FAST:fluorogen complexes; type: physicochemical; details: for λabs, wavelength of maximal absorption / λem, wavelength of maximal emission / ϕ, fluorescence quantum yield / Brightness (ε×ϕ) / ε, molar absorption coefficient at λabs: FAST:fluorogen complex in PBS pH 7.4
Method: In an embodiment, the fluorescence quantum yields after one-photon excitation ϕ are calculated from the relation: […]
Methods for measuring the brightness are well-known in the art. Brightness corresponds to the fluorescence output per emitter and is the product of the molar absorption coefficient (at the excitation wavelength) and the fluorescence quantum yield.
as §1, §2, §3

[3] = system: HeLa cells displaying FAST on the extracellular side (Ig κ-chain leader / PDGFR transmembrane domain); assay: Selective labeling of cell-surface FAST-tagged proteins, confocal imaging; type: cell-based; details: for Localisation of fluorescent labeling of FAST-tagged protein: 5 min
Method: (§4) The plasmid pAG211 for mammalian expression of FAST (fused also to mCherry as additional transfection marker) at the outer plasma membrane was obtained by inserting the sequence coding the protein of interest within the pDisplay plasmid (ThermoFisher) using Sal I and Bgl II restriction sites. The plasmid pAG96 for cytoplasmic expression of FAST fused to mCherry was previously reported (Plamont, M.-A. et al., 2016).
(§5) HeLa cells were cultured in DMEM supplemented with phenol red, Glutamax I, 10% (vol/vol) fetal calf serum (FCS), and 1% penicillin-streptomycin at 37° C. within a 5% CO2 atmosphere. For microscopic imaging, cells were seeded in μDish or μSlide IBIDI (Biovalley) coated with poly-L-lysine. Cells were transiently transfected using Genejuice (Merck) according to the manufacturer's protocol. Before imaging, cells were washed with PBS, and treated with DMEM media (without serum and phenol red) containing the fluorogens at the indicated concentration. Cells were imaged directly without washing.
(§6) Confocal micrographs were acquired on a Zeiss LSM 710 Laser Scanning Microscope equipped with a Plan Apochromat 63×/1.4 NA oil immersion objective. ZEN software was used to collect the data. Images were analyzed with Image J. Flow cytometry analyses were performed on an Accuri C6 cytometer (BD Biosciences).
Next, the use of HBRAA-3E for the selective labeling of cell-surface FAST-tagged proteins was studied. A polypeptide was engineered comprising a FAST in between a murine Ig κ-chain leader sequence and the platelet derived growth factor receptor (PDGFR) transmembrane domain. FAST was fused at the […] of the PDGFR transmembrane domain, which anchors the protein to the plasma membrane. The resulting FAST-tagged protein was expressed transiently in HeLa cells.

[4] = system: HeLa cells expressing FAST fused to mCherry in the cytoplasm; assay: Cell exclusion after prolonged exposure, confocal imaging; type: cell-based; details: 5 μM, two hours, cytoplasmic FAST-mCherry
Method: as §4, §5, §6
Cell exclusion after prolonged exposure was then evaluated. […]

Compound	Affinity for FAST, in words [1]	Kd [1]	λabs, wavelength of maximal absorption [2] [nm]	λem, wavelength of maximal emission [2] [nm]	ϕ, fluorescence quantum yield [2] [%]	Brightness (ε×ϕ) [2]	ε, molar absorption coefficient at λabs [2] [mM⁻¹ cm⁻¹]	also measured
COc1cc(/C=C2\SC(=S)N(CC(=O)O)C2=O)cc(OC)c1O [HBRAA-3,5DOM, (Z)-2-(5-(4-hydroxy-3,5-dimethoxybenzylidene)-4-oxo-2-thioxothiazolidin-3-yl)acetic acid]	none of the complexes formed by di-substituted compounds HBRAA-2,5DM, HBRAA-3,5DM and HBRAA-3,5DMO has an affinity higher than the one of HBRAA-3M	> 20000 nM	532	606	1			
Cc1cc(/C=C2\SC(=S)N(CC(=O)O)C2=O)cc(C)c1O [HBRAA-3,5DM, (Z)-2-(5-(4-hydroxy-3,5-dimethylbenzylidene)-4-oxo-2-thioxothiazolidin-3-yl)acetic acid]	none of the complexes formed by di-substituted compounds HBRAA-2,5DM, HBRAA-3,5DM and HBRAA-3,5DMO has an affinity higher than the one of HBRAA-3M	> 20000 nM	522	571	4			
Cc1cc(/C=C2\SC(=S)N(CC(=O)O)C2=O)ccc1O [HBRAA-3M, (Z)-2-(5-(4-hydroxy-3-methylbenzylidene)-4-oxo-2-thioxothiazolidin-3-yl)acetic acid]		6400 nM	502	557	6	3,400	56	Brightness compared with FAST:HMBR ([2]; in words): three-fold lower brightness
CCOc1cc(/C=C2\SC(=S)N(CC(=O)O)C2=O)ccc1O [HBRAA-3OE, (Z)-2-(5-(4-hydroxy-3-ethoxybenzylidene)-4-oxo-2-thioxothiazolidin-3-yl)acetic acid]		1700 nM	525	575	6	about 3,700	62	Brightness (ε×ϕ) ([2]; listed as FAST:HBRAA-3OE): 3,700; Shift of absorption and emission of the FAST complex compared with HBRAA-3E ([2]; in words): further red-shifted the absorption and the emission
Cc1cc(/C=C2\SC(=S)N(CC(=O)O)C2=O)c(C)cc1O [HBRAA-2,5DM, (Z)-2-(5-(4-hydroxy-2,5-dimethylbenzylidene)-4-oxo-2-thioxothiazolidin-3-yl)acetic acid]	none of the complexes formed by di-substituted compounds HBRAA-2,5DM, HBRAA-3,5DM and HBRAA-3,5DMO has an affinity higher than the one of HBRAA-3M	5400 nM	519	566	5	3,200	63	
Cc1cc(/C=C2\SC(=S)NC2=O)ccc1O [HMBR, 4-hydroxy-3-methylbenzylidene rhodanine, reference compound]								Localisation of fluorescent labeling of FAST-tagged protein ([3]; 5 μM): labeling of FAST-tagged proteins both at the membrane and within the secretory pathway; also recorded: revealed membrane and intracellular proteins; Labeling after subsequent addition to cells pre-treated 1 h with HBRAA-3E ([3]; immediate imaging (<10 s)): revealed proteins within the secretory pathway
O=C1NC(=S)S/C1=C\c1ccc(O)cc1 [HBR, 4-hydroxybenzylidene rhodanine, reference compound]			467	527	9	4,000	44	
COc1cc(/C=C2\SC(=S)N(CC(=O)O)C2=O)ccc1O [HBRAA-3OM, (Z)-2-(5-(4-hydroxy-3-methoxybenzylidene)-4-oxo-2-thioxothiazolidin-3-yl)acetic acid]	almost no affinity with FAST	> 20000 nM	520	572	2			
O=C(O)CN1C(=O)/C(=C/c2ccc(O)cc2)SC1=S [HBRAA, (Z)-2-(5-(4-hydroxybenzylidene)-4-oxo-2-thioxothiazolidin-3-yl)acetic acid]	almost no affinity for FAST	> 20000 nM	488	555				
CCc1cc(/C=C2\SC(=S)N(CC(=O)O)C2=O)ccc1O [HBRAA-3E, (Z)-2-(5-(3-ethyl-4-hydroxybenzylidene)-4-oxo-2-thioxothiazolidin-3-yl)acetic acid]		~1300 nM and 1300 nM	505	559	8	about 4,900	61	Red shift in absorption compared to FAST:HMBR [2]: 25 nm; Red shift in emission compared to FAST:HMBR [2]: 20 nm; Brightness (ε×ϕ) ([2]; listed as FAST:HBRAA-3E): 4,900; Intracellular labeling (cell exclusion) [4]: no intracellular labeling; Localisation of fluorescent labeling of FAST-tagged protein ([3]; 5 μM): fluorescent labeling only at the plasma membrane; also recorded: revealed only surface-exposed proteins; Intracellular labeling upon longer incubation ([3]; 5 μM, 1 h): no intracellular labeling
COc1cc(O)ccc1/C=C1\SC(=S)N(CC(=O)O)C1=O [HBRAA-2OM, (Z)-2-(5-(4-hydroxy-2-methoxybenzylidene)-4-oxo-2-thioxothiazolidin-3-yl)acetic acid]		500 nM and 480 nM	497	537	5	about 2,800	55	Brightness (ε×ϕ) ([2]; listed as FAST:HBRAA-2OM): 2,800
